Experiments:
Assay type in all cases: organism-based
Conditions in all cases: in vivo
Mus musculus [1] = experiment: Toxicity in BS1 mouse at 63 mg/kg, ip; parameters: dose 63 mg/kg, route intraperitoneal
Mus musculus [2] = experiment: Toxicity in BS1 mouse at 125 mg/kg, ip; parameters: dose 125 mg/kg, route intraperitoneal
Mus musculus [3] = experiment: Toxicity in BS1 mouse assessed as lethargy at 250 mg/kg, ip; parameters: dose 250 mg/kg, route intraperitoneal
Mus musculus [4] = experiment: Toxicity in BS1 mouse assessed as ataxia at 250 mg/kg, ip; parameters: dose 250 mg/kg, route intraperitoneal
Mus musculus [5] = experiment: Toxicity in BS1 mouse assessed as death at 500 mg/kg, ip within 4 mins; parameters: dose 500 mg/kg, route intraperitoneal
Mus musculus [6] = experiment: Toxicity in BS1 mouse assessed as occurrence of liver lesions at 250 mg/kg, ip; parameters: dose 250 mg/kg, route intraperitoneal
Mus musculus [7] = experiment: Toxicity in BS1 mouse assessed as lethargy, ataxia, gasping and clonic convulsion at 500 mg/kg, ip within 4 mins; parameters: dose 500 mg/kg, route intraperitoneal

C/C=C(\C)C(=O)O[C@@H](C)[C@](O)(C(=O)OCC1=CCN2CC[C@@H](OC(C)=O)[C@@H]12)C(C)C
Activity (Mus musculus [1]): Non-toxic | Activity (Mus musculus [2]): Non-toxic | Activity (Mus musculus [3]): Toxic | Activity (Mus musculus [4]): Toxic | Activity (Mus musculus [5]): Toxic | Activity (Mus musculus [6]): Non-toxic | Activity (Mus musculus [7]): Toxic

C/C=C(\C)C(=O)O[C@@H](C)[C@](O)(C(=O)OCC1=CCN2CC[C@@H](O)[C@@H]12)C(C)C [SCORPIOIDINE]
Activity (Mus musculus [1]): Non-toxic | Activity (Mus musculus [2]): Non-toxic | Activity (Mus musculus [3]): Toxic | Activity (Mus musculus [4]): Toxic | Activity (Mus musculus [5]): Toxic | Activity (Mus musculus [6]): Non-toxic | Activity (Mus musculus [7]): Toxic
